# From PubChem BioAssay AID1963449 (Molecular Pharmacology Branch, DTP, NCI, 2024)
# Tested on: 596521-263-R-J1-PDC complex spheroid growth
# Experiment: Anticancer human tumor 596521-263-R-J1-PDC patient-derived soft tissue sarcoma cell line growth inhibition [Asc]
# Conditions: for IC50: curve of first compound; for viability, T/C: stronger effect = lower value
# Outline: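 Stromal components (HUVEC and hMSC) are co-assembled with the cancer cells into multicellular spheroids. Drugs are then added singly or paired, at concentrations falling by half-log increments from a clinically achievable maximum, capped at 10 microM without known Cmax.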
# [1] = second compound 0.00949 µM, first compound 0.00316 µM
# [2] = second compound 0.00949 µM, first compound 0.01 µM
# [3] = second compound 0.00949 µM, first compound 0.0316 µM
# [4] = second compound 0.00949 µM, first compound 0.1 µM
# [5] = second compound 0.03 µM, first compound 0.00316 µM
# [6] = second compound 0.03 µM, first compound 0.01 µM
# [7] = second compound 0.03 µM, first compound 0.0316 µM
# [8] = second compound 0.03 µM, first compound 0.1 µM
# [9] = second compound 0.0949 µM, first compound 0.00316 µM
# [10] = second compound 0.0949 µM, first compound 0.01 µM
# [11] = second compound 0.0949 µM, first compound 0.0316 µM
# [12] = second compound 0.0949 µM, first compound 0.1 µM
# [13] = second compound 0.3 µM, first compound 0.00316 µM
# [14] = second compound 0.3 µM, first compound 0.01 µM
# [15] = second compound 0.3 µM, first compound 0.0316 µM
# [16] = second compound 0.3 µM, first compound 0.1 µM
# [17] = second compound 0.949 µM, first compound 0.00316 µM
# [18] = second compound 0.949 µM, first compound 0.01 µM
# [19] = second compound 0.949 µM, first compound 0.0316 µM
# [20] = second compound 0.949 µM, first compound 0.1 µM
# [21] = second compound 3 µM, first compound 0.00316 µM
# [22] = second compound 3 µM, first compound 0.01 µM
# [23] = second compound 3 µM, first compound 0.0316 µM
# [24] = second compound 3 µM, first compound 0.1 µM
# 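Also: spheroids exposed to compounds for 7 days.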
smiles,measurement,setting,value
COc1c(OCCCN2CCOCC2)ccc2c3n(c(=NC(=O)c4cnc(N)nc4)nc12)CCN3 + CCN1C(C(=O)NC23CCC(C(=O)O)(CC2)CC3)C(c2cccc(Cl)c2F)C2(C(=O)Nc3cc(Cl)ccc32)C12CCCCC2,IC50,second compound 0.00949 µM,199 nM
same,IC50,second compound 0.03 µM,182 nM
same,IC50,second compound 0.0949 µM,159 nM
same,IC50,second compound 0.3 µM,212 nM
same,IC50,second compound 0.949 µM,105 nM
same,IC50,second compound 3 µM,125 nM
same,"viability, T/C",[1],93.1%
same,"viability, T/C",[2],90.5%
same,"viability, T/C",[3],70.4%
same,"viability, T/C",[4],67.6%
same,"viability, T/C","second compound 0.00949 µM, first compound 0.316 µM",39.1%
same,"viability, T/C","second compound 0.00949 µM, first compound 1 µM",24%
same,"viability, T/C",[5],97.5%
same,"viability, T/C",[6],96.7%
same,"viability, T/C",[7],80%
same,"viability, T/C",[8],59.4%
same,"viability, T/C","second compound 0.03 µM, first compound 0.316 µM",42%
same,"viability, T/C","second compound 0.03 µM, first compound 1 µM",34.9%
same,"viability, T/C",[9],87.7%
same,"viability, T/C",[10],96.3%
same,"viability, T/C",[11],78.3%
same,"viability, T/C",[12],59.1%
same,"viability, T/C","second compound 0.0949 µM, first compound 0.316 µM",37.5%
same,"viability, T/C","second compound 0.0949 µM, first compound 1 µM",31.4%
same,"viability, T/C",[13],99.9%
same,"viability, T/C",[14],83.8%
same,"viability, T/C",[15],79.9%
same,"viability, T/C",[16],64.8%
same,"viability, T/C","second compound 0.3 µM, first compound 0.316 µM",39.9%
same,"viability, T/C","second compound 0.3 µM, first compound 1 µM",29.9%
same,"viability, T/C",[17],103%
same,"viability, T/C",[18],97.3%
same,"viability, T/C",[19],75.3%
same,"viability, T/C",[20],50.9%
same,"viability, T/C","second compound 0.949 µM, first compound 0.316 µM",36.1%
same,"viability, T/C","second compound 0.949 µM, first compound 1 µM",30.1%
same,"viability, T/C",[21],87.5%
same,"viability, T/C",[22],85.4%
same,"viability, T/C",[23],78.2%
same,"viability, T/C",[24],52.3%
same,"viability, T/C","second compound 3 µM, first compound 0.316 µM",40.1%
same,"viability, T/C","second compound 3 µM, first compound 1 µM",38.7%
NC(=O)C(=Cn1cnc(-c2cc(C(F)(F)F)cc(C(F)(F)F)c2)n1)c1cncnc1 + CCN1C(C(=O)NC23CCC(C(=O)O)(CC2)CC3)C(c2cccc(Cl)c2F)C2(C(=O)Nc3cc(Cl)ccc32)C12CCCCC2,IC50,second compound 0.00949 µM,32.9 nM
same,IC50,second compound 0.03 µM,33.6 nM
same,IC50,second compound 0.0949 µM,37.4 nM
same,IC50,second compound 0.3 µM,29.4 nM
same,IC50,second compound 0.949 µM,35.1 nM
same,IC50,second compound 3 µM,28.2 nM
same,"viability, T/C","second compound 0.00949 µM, first compound 0.000949 µM",92%
same,"viability, T/C","second compound 0.00949 µM, first compound 0.003 µM",97.2%
same,"viability, T/C","second compound 0.00949 µM, first compound 0.00949 µM",68.5%
same,"viability, T/C","second compound 0.00949 µM, first compound 0.03 µM",61.4%
same,"viability, T/C","second compound 0.00949 µM, first compound 0.0949 µM",15.4%
same,"viability, T/C","second compound 0.00949 µM, first compound 0.3 µM",10.3%
same,"viability, T/C","second compound 0.03 µM, first compound 0.000949 µM",102%
same,"viability, T/C","second compound 0.03 µM, first compound 0.003 µM",96.3%
same,"viability, T/C","second compound 0.03 µM, first compound 0.00949 µM",78.8%
same,"viability, T/C","second compound 0.03 µM, first compound 0.03 µM",56.8%
same,"viability, T/C","second compound 0.03 µM, first compound 0.0949 µM",20.4%
same,"viability, T/C","second compound 0.03 µM, first compound 0.3 µM",11.5%
same,"viability, T/C","second compound 0.0949 µM, first compound 0.000949 µM",112%
same,"viability, T/C","second compound 0.0949 µM, first compound 0.003 µM",108%
same,"viability, T/C","second compound 0.0949 µM, first compound 0.00949 µM",87.8%
same,"viability, T/C","second compound 0.0949 µM, first compound 0.03 µM",61.4%
same,"viability, T/C","second compound 0.0949 µM, first compound 0.0949 µM",17.1%
same,"viability, T/C","second compound 0.0949 µM, first compound 0.3 µM",10.3%
same,"viability, T/C","second compound 0.3 µM, first compound 0.000949 µM",127%
same,"viability, T/C","second compound 0.3 µM, first compound 0.003 µM",91.7%
same,"viability, T/C","second compound 0.3 µM, first compound 0.00949 µM",77.3%
same,"viability, T/C","second compound 0.3 µM, first compound 0.03 µM",56.6%
same,"viability, T/C","second compound 0.3 µM, first compound 0.0949 µM",18%
same,"viability, T/C","second compound 0.3 µM, first compound 0.3 µM",8.14%
same,"viability, T/C","second compound 0.949 µM, first compound 0.000949 µM",104%
same,"viability, T/C","second compound 0.949 µM, first compound 0.003 µM",102%
same,"viability, T/C","second compound 0.949 µM, first compound 0.00949 µM",79.6%
same,"viability, T/C","second compound 0.949 µM, first compound 0.03 µM",61%
same,"viability, T/C","second compound 0.949 µM, first compound 0.0949 µM",16.3%
same,"viability, T/C","second compound 0.949 µM, first compound 0.3 µM",11.4%
same,"viability, T/C","second compound 3 µM, first compound 0.000949 µM",88.2%
same,"viability, T/C","second compound 3 µM, first compound 0.003 µM",88.3%
same,"viability, T/C","second compound 3 µM, first compound 0.00949 µM",74.3%
same,"viability, T/C","second compound 3 µM, first compound 0.03 µM",48.4%
same,"viability, T/C","second compound 3 µM, first compound 0.0949 µM",22%
same,"viability, T/C","second compound 3 µM, first compound 0.3 µM",9.41%
NC1CCC(NC2CC2c2ccccc2)CC1 (stereo unspecified) + CCN1C(C(=O)NC23CCC(C(=O)O)(CC2)CC3)C(c2cccc(Cl)c2F)C2(C(=O)Nc3cc(Cl)ccc32)C12CCCCC2,IC50,second compound 0.00949 µM,> 100 nM
same,IC50,second compound 0.03 µM,> 100 nM
same,IC50,second compound 0.0949 µM,> 100 nM
same,IC50,second compound 0.3 µM,> 100 nM
same,IC50,second compound 0.949 µM,> 100 nM
same,IC50,second compound 3 µM,> 100 nM
same,"viability, T/C","second compound 0.00949 µM, first compound 0.000316 µM",98.8%
same,"viability, T/C","second compound 0.00949 µM, first compound 0.001 µM",78.1%
same,"viability, T/C",[1],84.2%
same,"viability, T/C",[2],88.9%
same,"viability, T/C",[3],83.7%
same,"viability, T/C",[4],105%
same,"viability, T/C","second compound 0.03 µM, first compound 0.000316 µM",84.2%
same,"viability, T/C","second compound 0.03 µM, first compound 0.001 µM",85.3%
same,"viability, T/C",[5],89.6%
same,"viability, T/C",[6],87.6%
same,"viability, T/C",[7],82.5%
same,"viability, T/C",[8],88.7%
same,"viability, T/C","second compound 0.0949 µM, first compound 0.000316 µM",95.3%
same,"viability, T/C","second compound 0.0949 µM, first compound 0.001 µM",87.9%
same,"viability, T/C",[9],85%
same,"viability, T/C",[10],84.5%
same,"viability, T/C",[11],89.1%
same,"viability, T/C",[12],81.4%
same,"viability, T/C","second compound 0.3 µM, first compound 0.000316 µM",87.7%
same,"viability, T/C","second compound 0.3 µM, first compound 0.001 µM",87.7%
same,"viability, T/C",[13],80.7%
same,"viability, T/C",[14],94.1%
same,"viability, T/C",[15],85.4%
same,"viability, T/C",[16],87.8%
same,"viability, T/C","second compound 0.949 µM, first compound 0.000316 µM",94.7%
same,"viability, T/C","second compound 0.949 µM, first compound 0.001 µM",87.2%
same,"viability, T/C",[17],87.9%
same,"viability, T/C",[18],97.3%
same,"viability, T/C",[19],92.8%
same,"viability, T/C",[20],82.5%
same,"viability, T/C","second compound 3 µM, first compound 0.000316 µM",80.9%
same,"viability, T/C","second compound 3 µM, first compound 0.001 µM",83.2%
same,"viability, T/C",[21],85.2%
same,"viability, T/C",[22],71%
same,"viability, T/C",[23],75.9%
same,"viability, T/C",[24],82.7%
